Measurements: US20100324017A1, “ACYLGUANIDINE DERIVATIVE” (priority 2007, published 2010)

Assays:
[1] = test system: PCP-induced prepulse inhibition (PPI) disorder; test: Disorder of PCP-induced prepulse inhibition (PPI) in a rat; format: in vivo; conditions: oral, PCP 1 mg/kg s.c., % PPI
Experimental: An Improvement Effect for a Disorder of PCP-Induced Prepulse Inhibition (PPI) in a Rat
A startle amplitude occurs in humans to which an sound stimulus has been given, but in healthy human, this startle amplitude is inhibited by the giving of a weak sound stimulus that precedes the sound stimulus. For a patient with schizophrenia, the inhibitory function similarly declined. It is known that when a rat is administered with PCP (phencyclidine), there is a symptom similar to the negative symptom of schizophrenia in humans. Using this model, the improvement effect of the compound (I) for the information processing disorder included in cognitive impairment of schizophrenia was evaluated.
Species: Male Wistar rat/number of the animals (number of animals per group): 12 animals per group
Startle amplitude measuring device for small animals: an SR-LAB ABS system (manufactured by San Diego Instruments)
An animal holder, to which a Plexiglas-made cylinder for animal storage having a diameter of 8.2 cm was attached, was positioned in the upper part of a Plexiglas-made frame in a measurement box. In the measurement box, a sound-insulating treatment and ventilation (FAN) were carried out. Sound was administered by a speaker attached to the 24 cm upper part of the cylinder. The movement of the animals in the cylinder was detected by a transducer attached in the lower part of the frame and recorded by a microcomputer via an interface.
The experiment was initiated after the animals were put into the chamber for measurement and had spent 10 minutes adapting to the measurement environment. Basically, at 35 minutes after the compound to be tested was orally administered, 1 mg/kg of PCP was subcutaneously administered (1 ml/kg). Five minutes later, the rats were put into a chamber for measurement, allowed to adapt for 10 minutes, and the measurement was then initiated. A white noise of 65 dB (for all frequencies, a disordered noise having a constant energy per unit band) used as a background noise was always played through the break periods and the sessions. The three types of trials as shown below were carried out in a random order 10 times for each type with 30 times in total. Each trial was carried out at a pseudo-random interval of 20 to 60 seconds with an average of 40 seconds. A pulse was defined as a white noise of 120 dB, 20 msec, and a prepulse was defined as a white noise of 70, 80 dB, 20 msec.
The startle amplitude of the animal was measured for 100 msec from the initiation of the pulse, and the maximum value was taken as a “maximum startle amplitude (Vmax))”. The “maximum startle amplitude” for the ten times for each of the three types of trials were averaged, and taken as a “startle amplitude (simply referred to as SA)” under the stimulation condition.
The % prepulse inhibition (% PPI) was calculated in the following equation in the PP80 & P trial of 3) above.
% Prepulse inhibition (% PPI)=(Startle amplitude at P-alone trial (SA)−Startle amplitude (SA) at a PP80 & P trial)/Startle amplitude at P alone trial×100
The measured value was expressed as an average value (mean±SE). First, the startle amplitudes (SA) were statistically analyzed. […] For the measured data of % PPI, the normal group and the control group (the group administered with PCP) were compared by a Student t-test, and for the control group and the group administered with the compound to be tested were compared using a Dunnett evaluation. […] The effect of the compound to be tested was assessed with % PPI.

MAP-induced overactivity = test: MAP (methane phetamine)-induced overactivity in mice, kinetic momentum by infrared sensor; format: in vivo; conditions: mouse, oral, MAP 1 mg/kg i.p., total 60 minutes, P<0.05
Experimental: Evaluation of Various Drugs Relative to a Drug for Increasing the Kinetic Momentum of Mice (Methane Phetamine, MK-801) (Method for Measuring a Kinetic Momentum by Discharge of an Infrared Ray)
The effect of improving the positive symptoms and the negative symptoms of schizophrenia by the compound (I) was evaluated by measuring the kinetic momentum that had been […] with administration of the compound in a model causing the symptoms by methane phetamine (which is hereinafter simply referred to as MAP) and MK-801.
Species: Male ICR mouse/number of animals (number of animals per group): 8 to 12 animals per group
The animal was left in a laboratory for 1 hour or longer to be acclimated to the environment, and the animal was taken from the feeding cage, orally administered with a compound to be tested, and then returned to the feeding cage. After 30 minutes, it was put into a cage for measurement, and the kinetic momentum of just the compound to be tested was measured. Further, after 30 minutes, the animal was taken out, and intraperitoneally administered with a drug for increasing kinetic momentum (MAP; 1 mg/kg or MK-801; 0.3 mg/kg, all dissolved in physiological saline), and its kinetic momentum was measured for a certain time (60 minutes) using a device for measuring the kinetic momentum by means of an infrared ray sensor (CompACT AMS, Muromachi Kikai Co., Ltd.). Also, the test was carried out under non-fasting.
The 60 minutes of measurements was classified into three groups: a first half 30 minutes, a second half 30 minutes, and a total 60 minutes. For a normal mouse (a mouse administered with physiological saline) and a mouse administered with the drug for increasing kinetic momentum, a Student's T test was used for evaluation in each interval. For the group administered with the compound to be tested, a solvent (vehicle) group and a Dunnett's T test were carried out and evaluated. For the evaluation, in case where there was a significant (P<0.05) difference for the total 60 minutes, it was considered to be effective.

Compound	improvement of the disorder of PCP prepulse inhibition (PPI) ([1]; dose 0.1 mg/kg)	improvement of the disorder of PCP prepulse inhibition (PPI) ([1]; dose 0.3 mg/kg)	inhibition of MAP-induced overactivity (MAP-induced overactivity; dose 0.003 mg/kg)	improvement of the disorder of PCP prepulse inhibition (PPI) ([1]; dose 0.03 mg/kg)	inhibition of MAP-induced overactivity (MAP-induced overactivity; dose 0.01 mg/kg)
CC(C)n1c2cc(C(=O)N=C(N)N)ccc2c2c(CO)cccc21 [Example 65]	significantly improved	significantly improved	significantly inhibited	–	–
NC(N)=NC(=O)c1ccc2c3ccccc3n(C3CCOCC3)c2c1 [Example 25]	significantly improved	–	–	significantly improved	significantly inhibited
